{"source": "paper PMC5522996", "about": "“Big conductance calcium‐activated potassium channel openers control spasticity without sedation” (British Journal of Pharmacology, 2017)", "key": {"[1]": {"tested_on": "rat mesenteric artery", "test": "Methoxamine‐evoked contraction of rat mesenteric artery", "type": "cell-based", "details": "200 µM", "experimental": "Vessels were equilibrated and set to a basal tension of 2 to 2.5 mN. The integrity of the endothelium was assessed by pre‐contracting the vessel with 10 μM methoxamine (an α1‐adrenoceptor agonist), followed by relaxation with 10 μM carbachol (a muscarinic acetylcholine receptor agonist); vessels showing relaxations of greater than 90% were designated as endothelium‐intact. When the endothelium was not required, it was removed by rubbing the intima with a human hair; carbachol‐induced relaxation of less than 10% indicated successful removal. After the test for endothelial integrity, vessels were left for 30 min and then pre‐contracted with 10 μM methoxamine. This was followed by construction of a cumulative concentration–relaxation curve to VSN16R (10 nM–1 μM). […] Most experiments were performed in matched vessels; effects of blockers or endothelial removal were compared with the control responses obtained in separate vessels of the same rats. All relaxant responses are expressed as percentage relaxation of the tone induced by methoxamine. Values are given as mean ± SEM. Statistical comparisons of concentration‐dependent responses were made by two‐way ANOVA using Prism 4 (GraphPad Software, Inc, San Diego, CA, USA)."}, "[2]": {"tested_on": "BKCa channels", "parameters": "method as in Denson DD et al. Brain Res 638:61", "details": "ref Denson DD et al. Brain Res 638:61; read-out: EC50, inhibition of inside-out current of BKCa channels; cited from earlier work"}, "[3]": {"test": "Stability in pooled mouse liver microsomes", "type": "in vitro ADME", "details": "microsomes, 37°C, upper limit 100 min, read-out: t ½ in liver microsomes", "experimental": "(§1) The stability of compounds when subjected to hepatic and plasma degradation was assessed in vitro by Inpharmatica, Cambridge, UK. Compounds (1 μM) were incubated with either pooled mouse liver microsomes (0.1 mg protein mL^−1) or pooled mouse plasma at 37°C for 0, 5, 10, 20 and 40 min before termination with acetonitrile containing warfarin as an analytical internal standard. Samples were centrifuged, and the resultant supernatant analysed for parent compound. The mass responses at baseline were taken as the 100% reference values against which the disappearance of the compound was measured. The natural log of the % remaining values was used to generate linear plots of disappearance of the compounds. Half‐life values were calculated from the slope of these plots. Hepatocyte metabolism was assessed by Cyprotex, Macclesfield, and 10 μM VSN16R was incubated with primary mouse, rat, monkey (Macaque) and human hepatocytes for 1 h, and the presence of metabolites was assessed using liquid […] mass spectroscopy. The stability of VSN16R was assessed in vivo by Inpharmatica, Cyprotex and Charles Rivers, Cambridge. Blood (plasma) samples were obtained prior to and 5 min to 24 h after drug administration of 2–5 mg·kg^−1 i.v. or 5 mg·kg^−1 p.o. VSN16R into outbred mice and rats (n = 3 per time point). […] Data are expressed as mean ± SEM. […]"}, "[4]": {"target": "CYP450 2A6 (Homo sapiens, UniProt P11509)", "sequence (P11509 whole entry)": "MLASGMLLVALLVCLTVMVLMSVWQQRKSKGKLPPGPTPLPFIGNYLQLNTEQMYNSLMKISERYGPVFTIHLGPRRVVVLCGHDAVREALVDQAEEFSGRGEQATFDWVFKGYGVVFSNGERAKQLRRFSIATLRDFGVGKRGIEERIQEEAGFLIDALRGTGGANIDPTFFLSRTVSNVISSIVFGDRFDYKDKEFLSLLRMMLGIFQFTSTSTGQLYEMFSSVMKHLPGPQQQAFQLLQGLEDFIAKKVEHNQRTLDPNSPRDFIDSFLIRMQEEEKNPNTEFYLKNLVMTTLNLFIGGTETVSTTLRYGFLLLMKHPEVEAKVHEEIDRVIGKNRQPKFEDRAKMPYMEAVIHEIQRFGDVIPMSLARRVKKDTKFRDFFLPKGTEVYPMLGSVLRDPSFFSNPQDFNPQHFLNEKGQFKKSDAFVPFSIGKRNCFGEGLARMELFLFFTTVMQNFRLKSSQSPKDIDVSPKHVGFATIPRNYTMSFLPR", "test": "CYP450 inhibition of substrate binding"}, "[5]": {"target": "CYP450 2B6 (Homo sapiens, UniProt P20813)", "sequence (P20813 whole entry)": "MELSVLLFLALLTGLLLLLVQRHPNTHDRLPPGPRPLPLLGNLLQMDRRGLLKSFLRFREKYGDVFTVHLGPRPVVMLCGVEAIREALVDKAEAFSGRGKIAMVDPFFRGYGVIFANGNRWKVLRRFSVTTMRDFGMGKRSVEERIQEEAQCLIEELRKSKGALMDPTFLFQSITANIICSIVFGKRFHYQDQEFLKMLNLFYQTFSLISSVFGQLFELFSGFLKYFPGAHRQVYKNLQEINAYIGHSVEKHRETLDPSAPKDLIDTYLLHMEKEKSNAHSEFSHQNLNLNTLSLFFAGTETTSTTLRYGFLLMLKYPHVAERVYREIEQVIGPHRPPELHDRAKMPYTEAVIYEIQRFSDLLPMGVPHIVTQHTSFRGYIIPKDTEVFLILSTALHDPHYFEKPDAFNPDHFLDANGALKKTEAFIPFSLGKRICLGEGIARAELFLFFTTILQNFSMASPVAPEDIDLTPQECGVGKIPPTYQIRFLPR"}, "[6]": {"test": "Stability in pooled mouse plasma", "type": "in vitro ADME", "details": "37°C, upper limit 100 min, read-out: t ½ in plasma", "experimental": "as §1"}, "[7]": {"tested_on": "mouse vas deferens", "test": "Electrically‐evoked contraction of the mouse vas deferens", "type": "cell-based", "details": "for EC50: Mus musculus, read-out: EC50, inhibition of electrically‐evoked contraction", "experimental": "Vasa deferentia were obtained from outbred MF‐1 mice and mounted vertically in a 4 mL organ bath at an initial tension of 0.5 g. The baths contained Mg^2+‐free Krebs solution (NaCl 118.2 mM, KCl 4.75 mM, KH2PO4 1.19 mM, NaHCO3 25.0 mM, glucose 11.0 mM and CaCl2·6H2O 2.54 mM), which was kept at 35–36°C and bubbled with 95% O2 and 5% CO2. […] Contractions were monitored by a computer using a data recording and analysis system as described previously (Ross et al., 2001). After placement in an organ bath, each tissue was subjected to a stimulation‐free period of 10 min and then stimulated for 10 min. Tissues were then subjected to alternate periods of stimulation (5 min) and rest (10 min) until consistent twitch amplitudes were obtained. This equilibration procedure was followed by a stimulation‐free period of 25 min. Tissues were then stimulated for 5 min after which the first agonist addition was made and stimulation continued until the end of the experiment."}, "[8]": {"tested_on": "ABH mice", "test": "Temperature testing (hypothermia)", "type": "in vivo, mouse", "experimental": "These recordings were assessed 20 min following administration of compounds. Results are expressed as mean ± SEM, and were analysed by Student's t‐test or a one‐way ANOVA with Bonferroni post hoc test using Sigma/StatV3/Sigmpaplot V9 or V11 software (Pryce et al., 2014)."}, "[9]": {"tested_on": "ABH mice", "test": "Open‐field activity monitoring (hypomotility)", "type": "in vivo, mouse", "details": "1 mg·kg^−1 i.v., 30 min after administration", "experimental": "Motor activity was assessed using 27.9 × 27.9 cm open field activity monitor chambers and computer software (Med Associates Inc, St. Albans, VT, USA.). This was typically performed in a darkened room. Recordings were initiated once the mouse entered the chamber and continued for 5 min. These chambers, allowing four simultaneous recordings of individual mice and were fitted with infrared beams that could detect movement in the X, Y planes. The total distance travelled (cm) was recorded. Results are expressed as mean ± SEM. These were analysed by Student's paired t‐test or a one‐way ANOVA with Bonferroni post hoc test, using SigmaStat V3/Sigmaplot V9 or V11 software (Systat Ltd Hounslow, UK. Al‐Izki et al., 2012)."}, "[10]": {"tested_on": "spastic ABH mice with EAE", "test": "Spasticity: resistance to hindlimb flexion against a strain gauge"}, "[11]": {"tested_on": "mice", "test": "Visible sedation, behaviour and tolerability in mice", "details": "1 mg·kg^−1 i.v."}, "[12]": {"tested_on": "CB1 receptor‐deficient ABH mice", "test": "Spasticity in CB1 receptor‐deficient mice", "type": "in vivo, mouse", "details": "5 mg·kg^−1 i.v., 30 min (Figure 5A)"}, "[13]": {"tested_on": "rat mesenteric artery", "parameters": "method as in Hoi et al., 2007", "details": "ref Hoi et al., 2007; read-out: EC50, vasorelaxation of rat mesenteric arteries; cited from earlier work"}, "[14]": {"target": "T1, BKCa channel (Homo sapiens, UniProt Q12791+Q86W47)", "T1 construct": "host or cells: EA.hy926 endothelial cells", "T1 sequence (Q12791 whole entry)": "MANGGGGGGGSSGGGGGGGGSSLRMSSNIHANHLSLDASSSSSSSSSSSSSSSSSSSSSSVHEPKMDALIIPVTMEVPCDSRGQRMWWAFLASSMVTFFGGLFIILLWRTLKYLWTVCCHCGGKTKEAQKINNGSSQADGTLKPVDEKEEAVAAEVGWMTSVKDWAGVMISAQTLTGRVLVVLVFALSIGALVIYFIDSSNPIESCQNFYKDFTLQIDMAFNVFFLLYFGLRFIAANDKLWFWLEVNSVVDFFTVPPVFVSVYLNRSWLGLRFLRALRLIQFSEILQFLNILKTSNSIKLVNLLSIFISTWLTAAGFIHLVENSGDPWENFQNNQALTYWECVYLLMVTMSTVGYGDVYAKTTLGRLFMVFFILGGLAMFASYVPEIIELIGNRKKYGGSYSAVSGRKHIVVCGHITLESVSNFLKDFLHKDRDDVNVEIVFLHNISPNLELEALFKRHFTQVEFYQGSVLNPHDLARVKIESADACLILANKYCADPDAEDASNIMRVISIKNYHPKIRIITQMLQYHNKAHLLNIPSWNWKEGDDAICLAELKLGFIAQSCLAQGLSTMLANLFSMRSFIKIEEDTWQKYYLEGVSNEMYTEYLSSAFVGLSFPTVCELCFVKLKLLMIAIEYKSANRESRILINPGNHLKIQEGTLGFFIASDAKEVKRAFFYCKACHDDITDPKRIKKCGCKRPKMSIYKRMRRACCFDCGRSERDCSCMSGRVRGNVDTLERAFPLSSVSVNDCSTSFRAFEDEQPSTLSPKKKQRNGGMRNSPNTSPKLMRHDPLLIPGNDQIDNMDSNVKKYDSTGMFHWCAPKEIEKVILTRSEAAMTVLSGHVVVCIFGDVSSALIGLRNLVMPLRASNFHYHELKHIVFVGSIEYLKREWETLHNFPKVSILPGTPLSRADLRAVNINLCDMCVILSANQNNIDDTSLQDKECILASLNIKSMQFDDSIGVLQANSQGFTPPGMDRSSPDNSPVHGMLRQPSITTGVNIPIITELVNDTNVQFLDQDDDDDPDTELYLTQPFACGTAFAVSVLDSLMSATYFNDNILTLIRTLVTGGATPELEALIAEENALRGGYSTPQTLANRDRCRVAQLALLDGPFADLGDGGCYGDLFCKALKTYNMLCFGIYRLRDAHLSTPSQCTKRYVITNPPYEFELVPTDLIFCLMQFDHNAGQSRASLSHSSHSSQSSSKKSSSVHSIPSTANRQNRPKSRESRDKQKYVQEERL", "T1 sequence (Q86W47 whole entry)": "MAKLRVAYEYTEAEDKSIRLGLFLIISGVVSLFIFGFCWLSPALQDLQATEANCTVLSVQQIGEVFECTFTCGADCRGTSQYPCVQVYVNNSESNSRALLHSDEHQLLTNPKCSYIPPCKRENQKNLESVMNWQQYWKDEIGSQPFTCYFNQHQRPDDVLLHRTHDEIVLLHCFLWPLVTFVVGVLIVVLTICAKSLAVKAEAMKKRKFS", "test": "Single‐channel inside‐out patch clamp, EA.hy926 cells", "type": "cell-based", "details": "3 μM, inner surface of membrane, 40 mV, 0.3 μM free Ca^2+", "experimental": "The human EA.hy926 endothelial cells (ATCC, Manassas, USA) were grown in DMEM containing 10% FCS and 1% HAT (5 mM hypoxanthine, 20 μM aminopterin and 0.8 mM thymidine) and were maintained in an incubator at 37°C in 5% CO2 atmosphere (Bondarenko et al., 2013). Human HNC‐2 neuronal cells were obtained from ATCC. For experiments, cells were plated on glass coverslips. Single‐channel recordings were obtained from excised inside‐out membrane patches in symmetrical solutions using the patch‐clamp technique. All patch‐clamp experiments were performed at room temperature with the use of a water hydraulic micromanipulator (WR‐6, Narishige, Japan). […] The pipettes were filled with 140 mM KCl, 10 mM HEPES, 1 mM MgCl2, 5 mM EGTA and […] CaCl2 buffered to pH 7.2 by adding KOH. Cells were super‐perfused with a bath solution containing 140 mM NaCl, 5 mM KCl, 1.2 mM MgCl2, 10 mM HEPES, 10 mM glucose and 2.4 mM CaCl2. Following gigaseal formation, bath solution was switched to the following: 140 mM KCl, 10 mM HEPES, 1 mM MgCl2, 5 mM EGTA and a designated free Ca^2+ concentration, which was adjusted by adding different amounts of CaCl2 buffered to pH 7.2. (Bondarenko et al., 2011; Bondarenko et al., 2013). Single‐channel activity was expressed as NPo, where N represents the number of functional ion channels in the membrane patch and Po represents the open channel probability determined from idealized traces (Bondarenko et al., 2011). NPo was obtained from ≥20 s of continuous recording under each experimental condition. The effect of VSN16R was estimated after 3 min of continuous exposure to VSN16R‐containing solution. Data were analysed by ANOVA, and statistical significance was evaluated using Scheffés post hoc test of the Prism 5 software for Windows (GraphPad Software)."}, "[15]": {"test": "Phase I pharmacokinetics in healthy humans", "type": "in vivo, human", "details": "male, human, plasma, oral; twice daily dosing of VSN16R; read-out: Steady‐state plasma levels", "experimental": "(§2) The stability of compounds when subjected to hepatic and plasma degradation was assessed in vitro by Inpharmatica, Cambridge, UK. Compounds (1 μM) were incubated with either pooled mouse liver microsomes (0.1 mg protein mL^−1) or pooled mouse plasma at 37°C for 0, 5, 10, 20 and 40 min before termination with acetonitrile containing warfarin as an analytical internal standard. Samples were centrifuged, and the resultant supernatant analysed for parent compound. The mass responses at baseline were taken as the 100% reference values against which the disappearance of the compound was measured. The natural log of the % remaining values was used to generate linear plots of disappearance of the compounds. Half‐life values were calculated from the slope of these plots. Hepatocyte metabolism was assessed by Cyprotex, Macclesfield, and 10 μM VSN16R was incubated with primary mouse, rat, monkey (Macaque) and human hepatocytes for 1 h, and the presence of metabolites was assessed using liquid […] mass spectroscopy. The stability of VSN16R was assessed in vivo by Inpharmatica, Cyprotex and Charles Rivers, Cambridge. Blood (plasma) samples were obtained prior to and 5 min to 24 h after drug administration of 2–5 mg·kg^−1 i.v. or 5 mg·kg^−1 p.o. VSN16R into outbred mice and rats (n = 3 per time point). In addition, plasma, brain and spinal cord samples were obtained from ABH with spastic EAE. Immediately after blood collection, the brain and spinal cord were removed and then stored at −20°C prior to assay. Tissue samples were weighed, homogenized and centrifuged, and the lysates generated. Brain lysates and plasma were assayed by LC–MS methods by Inpharmatica/Charles Rivers, Cambridge, UK. This was also performed using a Waters Xevo TQ or API4000, AB Sciex mass spectrometer using spiked samples as standards. PK Solutions Software (Summit Research Services, Montrose, CO, USA), AB Sciex Analyst software combined with Thermo Fisher Scientific Watson LIMS processing and reporting software or WinNonLin pharmacokinetic or PK solutions 2.0 software (Summit Research Services, Montrose CO, USA) were used to produce PK parameters. Data are expressed as mean ± SEM. The detection limit of VSN16R was 2 ng·mL^−1 in plasma and brain and 14 ng·mL^−1 in spinal cords."}, "[16]": {"test": "Plasma, brain and spinal cord levels in ABH mice with spastic EAE", "type": "in vivo, mouse", "details": "after 5 mg·kg^−1 p.o. VSN16R, ABH mice with spastic EAE", "experimental": "as §2, with “cords. The detection limit of VSN22R was 2 ng·mL^−1 in plasma and 0.1 ng·mL^−1 for VSN44R in plasma. Pharmacokinetics in toxicological samples in rats (n = 6 per group), dogs (n = 6 per group) and humans (n = 6 per group) were performed by Charles Rivers (Edinburgh, UK).” for “cords.”"}}, "data": [{"molecule": "CNC1(c2ccccc2Cl)CCCCC1=O", "note": "(stereo not drawn) [ketamine]", "values": [{"measurement": "Effect on VSN16R relaxation of methoxamine-evoked contraction", "setting": "[1]", "result": "can inhibit the mechanism of action of VSN16R"}, {"measurement": "EC50", "setting": "[2]", "result": "~25", "unit": "µM"}]}, {"molecule": "Cc1ncc2n1-c1ccc(Cl)cc1C(c1ccccc1F)=NC2", "note": "[midazolam, reference compound]", "values": [{"measurement": "half-life at 1 μM", "setting": "[3]", "result": 17, "unit": "min"}]}, {"molecule": "N[C@@H]1C[C@H]1c1ccccc1", "note": "(racemic) [Tranylcypromine, reference compound]", "values": [{"measurement": "EC50", "setting": "[4]", "result": 200, "unit": "nM"}]}, {"molecule": "CC(=O)N1CCN(c2ccc(OCC3COC(Cn4ccnc4)(c4ccc(Cl)cc4Cl)O3)cc2)CC1", "note": "(stereo not drawn) [Ketoconazole, reference compound]", "values": [{"measurement": "EC50", "setting": "[5]", "result": 2900, "unit": "nM"}]}, {"molecule": "CC(=O)Oc1ccc(C(c2ccc(OC(C)=O)cc2)c2ccccn2)cc1", "note": "[bisacodyl, reference compound]", "values": [{"measurement": "half-life at 1 μM", "setting": "[6]", "result": 2, "unit": "min"}]}, {"molecule": "CC(CO)NC(=O)c1cccc(C=CCCCC(=O)N(C)C)c1", "note": "(stereo not drawn) [VSN16, 3‐(6‐(dimethylamino)‐6‐oxohex‐1‐enyl)‐N‐(1‐hydroxypropan‐2‐yl)benzamide]", "values": [{"measurement": "EC50", "setting": "[7]", "result": "~10", "unit": "nM"}, {"measurement": "Antagonism of the action by SR141716A", "setting": "[7]; pre‐incubation of 31.6 nM SR141617A", "result": "antagonized"}, {"measurement": "Hypothermia", "setting": "[8]; 1 mg·kg^−1 i.v., 20 min after administration", "result": "did not induce"}, {"measurement": "Cannabimimetic effects after injection directly into the CNS", "setting": "[8]; intracerebral (i.c.) route", "result": "failed to induce cannabimimetic effects"}, {"measurement": "Hypomotility in open field", "setting": "[9]", "result": "did not induce"}, {"measurement": "Inhibition of spasticity", "setting": "[10]; 1 mg·kg^−1 i.v., racemate", "result": "significantly inhibit spasticity"}, {"measurement": "Visible signs of sedation", "setting": "[11]", "result": "failed to induce visible signs of sedation"}, {"measurement": "Inhibition of spasticity", "setting": "[12]", "result": "significantly inhibit spasticity"}]}, {"molecule": "C[C@@H](CO)NC(=O)c1cccc(/C=C\\CCCC(=O)N(C)C)c1", "note": "[VSN16S]", "values": [{"measurement": "EC50", "setting": "[7]", "result": 37, "unit": "nM"}, {"measurement": "EC50", "setting": "[13]", "result": 140, "unit": "nM"}]}, {"molecule": "CNC(=O)CCC/C=C\\c1cccc(C(=O)N[C@H](C)CO)c1", "note": "[VSN22R, (R,Z)‐N‐(1‐hydroxypropan‐2‐yl)‐3‐(6‐(methylamino)‐6‐oxohex‐1‐en‐1‐yl)benzamide]", "values": [{"measurement": "Single BKCa channel activity", "setting": "[14]", "result": "facilitated single BKCa channel activity"}, {"measurement": "EC50", "setting": "[7]", "result": 9, "unit": "nM"}, {"measurement": "concentration at 1 week", "setting": "[15]", "result": "> 100", "unit": "nM"}, {"measurement": "Inhibition of spasticity", "setting": "[10]; 5 mg·kg^−1 i.v.", "result": "could inhibit the spasticity"}, {"measurement": "Plasma level of the named species", "setting": "[16]", "result": "106 ± 6.1", "unit": "ng/mL"}]}]}
